Earlier results as cited in PMC3065555 (European journal of medicinal chemistry, 2011).
pIC50: −log10 of the molar value.

Target: SERCA (Oryctolagus cuniculus, UniProt P04191)
Conditions: training set compounds previously characterized; ref [1], [6], [32]

SERCA, sequence (P04191 1-994 isoform P04191-2): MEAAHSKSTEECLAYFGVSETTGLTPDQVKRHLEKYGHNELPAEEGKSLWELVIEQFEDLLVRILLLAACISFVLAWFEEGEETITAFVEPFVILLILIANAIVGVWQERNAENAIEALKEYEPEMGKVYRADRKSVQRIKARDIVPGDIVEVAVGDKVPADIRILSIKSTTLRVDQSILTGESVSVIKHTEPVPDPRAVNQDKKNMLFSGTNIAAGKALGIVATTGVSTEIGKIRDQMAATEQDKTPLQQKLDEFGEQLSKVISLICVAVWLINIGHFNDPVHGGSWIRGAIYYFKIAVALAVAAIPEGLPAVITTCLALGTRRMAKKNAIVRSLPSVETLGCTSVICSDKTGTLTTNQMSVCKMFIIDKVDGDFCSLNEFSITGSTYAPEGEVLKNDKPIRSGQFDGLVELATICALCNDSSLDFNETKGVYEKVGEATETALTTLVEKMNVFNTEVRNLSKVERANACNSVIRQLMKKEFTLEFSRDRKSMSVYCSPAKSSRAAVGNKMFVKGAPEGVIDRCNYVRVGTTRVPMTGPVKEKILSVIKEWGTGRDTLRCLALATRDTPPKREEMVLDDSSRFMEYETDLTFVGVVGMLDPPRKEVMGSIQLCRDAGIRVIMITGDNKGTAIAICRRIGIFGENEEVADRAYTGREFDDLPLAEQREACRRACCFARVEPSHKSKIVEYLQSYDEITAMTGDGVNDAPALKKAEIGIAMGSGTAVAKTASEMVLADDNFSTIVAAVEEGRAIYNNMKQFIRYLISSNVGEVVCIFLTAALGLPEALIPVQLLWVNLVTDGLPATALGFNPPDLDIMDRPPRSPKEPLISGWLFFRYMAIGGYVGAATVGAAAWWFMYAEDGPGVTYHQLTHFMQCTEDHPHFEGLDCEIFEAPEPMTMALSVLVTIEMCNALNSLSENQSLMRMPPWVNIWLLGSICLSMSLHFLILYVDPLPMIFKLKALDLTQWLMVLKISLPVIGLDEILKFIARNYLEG

SMILES | IC50 | pIC50
CC(C)(C)c1ccc(C(C)(C)C)cc1 [1,4-di-tert-butylbenzene] | inactive | 
CC(C)(C)c1ccc(C(C)(C)C)c(O)c1 [2,5-di-tert-butylphenol] |  | 5.17
